These results are taken from patent US20170189372A1, “USE OF SUBSTITUTED CHROMAN COMPOUNDS” (INSTYTUT BIOLOGII MEDYCZNEJ, priority 2014, published 2017).

Structures are written as SMILES.

What is called inhibition is the drop in the measured response relative to a control, in per cent. The low end stands for little suppression, the high end for strong suppression.

In data set [1] the test system is reporter cell line for IL-2 (EL-4 cells). The experiment in a line: FCC primary screening with IL-2 reporter cells. In kind it is cell-based, mouse. To be noted: relative viability×(relative fluorescence−100); PMA and ionomycin activated, compound 0.4 μg/ml, 18 h. As to the method: (§1) Development of reporter cell lines was described previously (Ulleras, E., D. Trzaska, et al. (2005); “Development of the “Cell Chip”: a new in vitro alternative technique for immunotoxicity testing”, Toxicology 206(2): 245-56). Briefly, EL-4 cells were stably transfected with transgene consisting of promoter regions from mouse β-actin, interleukin-2 (IL-2), interleukin-4 (IL-4), interferon-γ (IFN-γ), and interleukin-10 (IL-10) and ORF for EGFP. Reporter cells were cultured at density 5×10^5-1×10^6 cells/ml in a humidified atmosphere with 5% CO2 at 37° C. in RPMI 1640 with Glutamax supplemented with 20% FCS and 0.5 μg/ml G418.
(§2) When applicable, cells and reagents handling was performed by JANUS Automated Workstation (PerkinElmer, Waltham, Mass., USA). Cells were seeded at a density of 5×10^4 per well in 96-well plates. In the primary screening reporter cells for IL-2 activated with PMA (50 ng/ml) and ionomycin (1 μM) were seeded in a 96-well plate and incubated with compounds from the chemical library in a total volume of 100 μL at 37° C. in a humidified atmosphere with 5% CO2 for 18 h. Concentration of compounds was 0.4 μg/ml. The final DMSO concentration was 0.2%, DMSO is not cytotoxic towards EL-4 reporter cells at this concentration. Control samples consisted of cells in medium with 0.2% DMSO with PMA (50 ng/ml) and ionomycin (1 μM). Following incubation cells were analyzed by flow cytometry. Viability was assessed in parallel to the level of EGFP-mediated fluorescence.
Selection of compounds was based on FCC parameters calculated using the following formula:
FCC parameter=relative viability×(relative fluorescence−100)
Compounds after primary screening were considered to be hits when FCC parameter calculated after primary screening was ≦−5000. After secondary screening area under the curve (A) of FCC parameter versus relative concentration was calculated (maximum concentration used, i.e. 50 μg/ml, was assumed to be 1).

Data set [2] relates to reporter cell line for β-actin (EL-4 cells). Description: FCC test, expanded version, β-actin reporter cell line. It counts as cell-based, mouse. Particulars: PMA and ionomycin, 1.56 to 50 μg/ml, 50 μg/ml assumed to be 1. The procedure:
as §1
(§3) Compounds after primary screening were considered to be hits when FCC parameter calculated after primary screening was ≦−5000. After secondary screening area under the curve (A) of FCC parameter versus relative concentration was calculated (maximum concentration used, i.e. 50 μg/ml, was assumed to be 1). […]
(§4) Flavonoids selected after preliminary screening were undergoing FCC testing using 5 reporter cell lines: for β-actin, interleukin-2 (IL-2), interleukin-4 (IL-4), interferon-γ (IFN-γ) and interleukin-10 (IL-10). The tested concentrations were in the range from 1.56 to 50 μg/ml.
(§5) Using flow cytometry mean fluorescence intensity (columns, left Y axis) and cell viability (dots, the right Y-axis) was determined for all the experimental points and normalized relative to the control—cells incubated with medium with PMA and ionomycin. The data is the mean of the three experiments ±SEM. The statistical significance of differences between means were determined: * p<0.05, ** p<0.01, *** p<0.001 versus control. Values above the graph represent the area under the curve showing the relationship of the FCC parameter and the relative compound concentration.

The test system of data set [3] is reporter cell line for interleukin-2 (EL-4 cells). Description: FCC test, expanded version, IL-2 reporter cell line. It counts as cell-based, mouse. To be noted: for The area under the curve showing the relationship between the FCC parameter and compound concentration, IL-2: IL-2 reporter line, PMA and ionomycin, 1.56 to 50 μg/ml, 50 μg/ml assumed to be 1. The procedure:
as §1, §3, §4, §5

For data set [4], the system named is reporter cell line for interleukin-4 (EL-4 cells). The experiment in a line: FCC test, expanded version, IL-4 reporter cell line. It counts as cell-based, mouse. To be noted: for The area under the curve showing the relationship between the FCC parameter and compound concentration, IL-4: IL-4 reporter line, PMA and ionomycin, 1.56 to 50 μg/ml, 50 μg/ml assumed to be 1. As to the method: as §1, §3, §4, §5

The subject of data set [5] is IL-2 production by Jurkat cells. The experiment in a line: ELISA for IL-2 in Jurkat cells. It counts as cell-based. Particulars: for inhibition at 10 µg/mL / inhibition at 50 µg/mL: Homo sapiens; for inhibition at 50 µg/mL: 50 μg/ml. The procedure: Jurkat cells were seeded in 48-well plates at a concentration of 1 million/ml. Cells activated with PMA (50 ng/ml) and ionomycin (1 uM) or resting were incubated with 50 selected flavonoids in a concentration of 10 μg/ml and 50 μg/ml for 24 hours in a humidified atmosphere with 5% CO 2 at 37° C. As a control, the respective cells in the medium or in a medium with PMA and ionomycin were employed. After incubation, cells were centrifuged (8 minutes, 1300 rpm), and the cell-free supernatants were stored at −20° C. until measurements. IL-2 was assessed using a commercially available ELISA kits according to the manufacturer's instructions. Each experiment was repeated 3 times.
FCC assay and ELISA assay were repeated three times. Relative data were presented as the means±SEM. […] Statistical significance of differences observed in both assays was tested with ANOVA followed by post hoc Dunnett test using GraphPad software (La Jolla, Calif., USA). In statistical analysis non-relative data were used
In general terms: ELISA stands for enzyme-linked immunosorbent assay.

In data set [6] the test system is reporter cell line EL-4. The experiment in a line: Viability of reporter cells in FCC assay. To be noted: at concentrations up to 25 mg/ml. It counts as cell-based, mouse. The procedure:
as §2
Using flow cytometry mean fluorescence intensity (columns, left Y axis) and cell viability (dots, the right Y-axis) was determined for all the experimental points and normalized relative to the control—cells incubated with medium with PMA and ionomycin. The data is the mean of the three experiments ±SEM. The statistical significance of differences between means were determined: * p<0.05, ** p<0.01, *** p<0.001 versus control. […]

Data set [7] relates to reporter cell line for interferon-γ (EL-4 cells). Description: FCC test, expanded version, IFN-γ reporter cell line. It counts as cell-based, mouse. Particulars: PMA and ionomycin, 1.56 to 50 μg/ml, 50 μg/ml assumed to be 1. As to the method:
as §1, §3, §4, §5

The subject of data set [8] is reporter cell line for interleukin-10 (EL-4 cells). The experiment in a line: FCC test, expanded version, IL-10 reporter cell line. To be noted: IL-10 reporter line; PMA and ionomycin; 1.56 to 50 μg/ml, 50 μg/ml assumed to be 1. In kind it is cell-based, mouse. As to the method:
as §1, §3, §4, §5

Setting [9] is: 10 μg/ml, Jurkat cells, PMA and ionomycin, 24 hours.
Where [10] appears, read: Jurkat cells, PMA and ionomycin, 24 hours.

With `CC(=O)Oc1cc2c(cc1Cl)C(C)(C)CC(C)(c1cc(Cl)c(OC(C)=O)cc1OC(C)=O)O2` (stereo not drawn) [Compound 12, 2-(2,4-diacetyloxy-5-chlorophenyl)-6-chloro-2,4,4-trimethylchroman-7-yl acetate], in data set [1], the “FCC parameter (IL-2 screening)” value is −7615. Also, the “The area under the curve showing the relationship between the FCC parameter and compound concentration, AKT” value (“The area … AKT” below) in data set [2] is listed as −2936. The “inhibition of PMA and ionomycin induced EGFP-mediated fluorescence (in words)” value in data set [3] (FCC test, reporter cell lines not specified, judged by area under the curve) is listed as “highest inhibition”. Further, the “decrease in EGFP-mediated fluorescence” value in data set [3] (reporter cell line for IL-2, 25 μg/ml) is given as “more than 90%”; in data set [4] (reporter cell line for IL 4, 25 μg/ml), “more than 90%”. In data set [5] (setting [9]), this compound had an inhibition at 10 µg/mL of 100%. Besides, at 50 µg/mL the inhibition in data set [5] (setting [10]) was 83%. Besides, the “inhibition of PMA and ionomycin induced IL-2 production by ELISA (in words)” value in data set [5] (concentration not given) is “strongly inhibited”. Moreover, the “cytotoxicity in the reporter cell line EL-4” value in data set [6] is reported as “not cytotoxic”.

For `COc1ccc2c(c1)OC(c1ccccc1)CC2=O` (stereo not drawn) [Compound 11, 7-methoxy-2-phenylchroman-4-one], the “FCC parameter (IL-2 screening)” value in data set [1] was −6917. For the same compound, the “The area … AKT” value in data set [2] is reported as −754. In addition, the “The area under the curve showing the relationship between the FCC parameter and compound concentration, IL-2” value (from here on “The area … IL-2”) in data set [3] is −3670. Besides, the “The area under the curve showing the relationship between the FCC parameter and compound concentration, IL-4” value (from here on “The area … IL-4”) in data set [4] is listed as −1499. In data set [7], the “The area under the curve showing the relationship between the FCC parameter and compound concentration, IFN” value (from here on “The area … IFN”) is reported as −3975. In addition, the “The area under the curve showing the relationship between the FCC parameter and compound concentration, IL-10” value (“The area … IL-10” for short) in data set [8] is reported as −777. Further, the inhibition at 10 µg/mL in data set [5] (setting [9]) came to 35%. The compound further gave an inhibition at 50 µg/mL in data set [5] (setting [10]) of 97%.

Regarding `CC(C)=CCc1c(O)cc(O)c2c1OC(c1ccc(O)cc1)CC2=O` (stereo not drawn) [Compound 5, 5,7-dihydroxy-2-(4-hydroxyphenyl)-8-(3-methylbut-2-enyl)chroman-4-one], in data set [1], the “FCC parameter (IL-2 screening)” value is −5264. The “The area … AKT” value in data set [2] is on record as −979. Moreover, the “The area … IL-2” value in data set [3] is −4991. In data set [4], the “The area … IL-4” value is given as −3324. Also, in data set [7], the “The area … IFN” value is listed as −4565. The “The area … IL-10” value in data set [8] is given as −3119. Further, the inhibition at 10 µg/mL in data set [5] (setting [9]) turned out to be 28%. Besides, the inhibition at 50 µg/mL in data set [5] (setting [10]) stood at 95%.

Consider `COc1ccc(C2CC(=O)c3cc(O)cc(O)c3O2)cc1` (stereo not drawn) [Compound 1, 6,8-dihydroxy-2-(4-methoxyphenyl)chroman-4-one], for which the “FCC parameter (IL-2 screening)” value in data set [1] is given as −8723. For the same compound, the “The area … AKT” value in data set [2] was −622. The “The area … IL-2” value in data set [3] was −2178. Moreover, the “The area … IL-4” value in data set [4] was −194. Further, the “The area … IFN” value in data set [7] is −1865. Besides, the “The area … IL-10” value in data set [8] was −1435. Besides, the “Inhibition of IL-2 production (ELISA)” value in data set [5] (setting [9]) is reported as “No”. The compound also yielded an inhibition at 50 µg/mL in data set [5] (setting [10]) of 97%.
